Experimental data: patent publication US8853238B2, “Fused heterocyclic compound and use thereof for pest control” (Sumitomo Chemical Company, Limited, priority 2010, dated 2014)
Where two headings read alike, the source gives them in different places.

What was measured:
Nilaparvata lugens = test: Test Example 4: spray on rice seedling, release of Nilaparvata lugens larvae; assay type: in vivo; conditions: 144 h, read-out: Control value
Aphis gossypii = test: Test Example 2: root immersion of cucumber seedling, then inoculation with Aphis gossypii; assay type: in vivo; conditions: 168 h; 500 ppm active ingredient; cucumber root part immersed in 5 ml; 30 Aphis gossypii inoculated one day after treatment; examined after further seven days
Description: A root part of a cucumber seedling (the first true leaf stage) from which soil had been washed off was immersed in 5 ml of each of the diluted solutions, and one day after treatment, on the cucumber leaf surface was inoculated with 30 Aphis gossypii (whole stage). After further seven days, the number of insect of living Aphis gossypii parasitized on the leaves of the cucumber was examined, and a control value was calculated according to the following equation: Control value (%)={1−(Cb×Tai)/(Cai×Tb))×100 wherein symbols represent as follows: Cb: the number of insects in a non-treated section before treatment, Cai: the number of insects in a non-treated section in observation, Tb: the number of insects in a treated-section before treatment, Tai: the number of insects in a treated-section in observation; wherein the non-treated section represents a section where the test diluted solution prepared by diluting the formulation without the present compound in Formulation Example 5 with the same amount of water as in the treated-section was used.

[1] = 500 ppm active ingredient, rice seedling sprayed with 10 ml, third-fourth instar larvae of Nilaparvata lugens, after 6 days at 25° C.

| SMILES | pest or weed control at 500 ppm (Nilaparvata lugens; [1]) [%] | pest or weed control at 500 ppm (Aphis gossypii) [%] | pest or weed control at 500 ppm (Nilaparvata lugens; Nilaparvata lugens) [%] |
| --- | --- | --- | --- |
| CSc1ccccc1-c1nc2cc(C(F)(F)F)cnc2n1C [Present Compound 1, 3-methyl-2-(2-methylsulfanylphenyl)-6-trifluoromethyl-3H-imidazo[4,5-b]pyridine] | ≥ 90 | – | – |
| CC(C)Sc1ccccc1-c1nc2cc(C(F)(F)F)cnc2n1C [Present Compound 12, 2-(2-isopropylsulfanylphenyl)-3-methyl-6-trifluoromethyl-3H-imidazo[4,5-b]pyridine] | ≥ 90 | – | – |
| Cn1c(-c2ccccc2[S+]([O-])C(C)(C)C)nc2cc(C(F)(F)F)cnc21 (centres unmarked) [Present Compound 16, 2-(2-tert-butylsulfinylphenyl)-3-methyl-6-trifluoromethyl-3H-imidazo[4,5-b]pyridine] | – | ≥ 90 | – |
| CCOCn1c(-c2ccccc2SCC)nc2cc(C(F)(F)F)cnc21 [Present Compound 33, 3-ethoxymethyl-2-(2-ethylsulfanylphenyl)-6-trifluoromethyl-3H-imidazo[4,5-b]pyridine] | – | ≥ 90 | – |
| CCOCn1c(-c2ccccc2SCC)nc2ncc(C(F)(F)F)cc21 [Present Compound 34, 1-ethoxymethyl-2-(2-ethylsulfanylphenyl)-6-trifluoromethyl-1H-imidazo[4,5-b]pyridine] | – | ≥ 90 | – |
| CCOCn1c(-c2ccccc2S(=O)(=O)CC)nc2cc(C(F)(F)F)cnc21 [Present Compound 36, 2-(2-ethylsulfonylphenyl)-3-ethoxymethyl-6-trifluoromethyl-3H-imidazo[4,5-b]pyridine] | – | ≥ 90 | – |
| CC[S+]([O-])c1ccccc1-c1nc2cc(Br)cnc2n1C (centres unmarked) [Present Compound 43, 6-bromo-2-(2-ethylsulfinylphenyl)-3-methyl-3H-imidazo[4,5-b]pyridine] | – | ≥ 90 | – |
| CCSc1ccccc1-c1nc2cc(C(F)(F)F)ccc2n1C [Present Compound 68, 2-(2-ethylsulfanylphenyl)-1-methyl-5-trifluoromethyl-1H-benzimidazole] | ≥ 90 | – | – |
| CC[S+]([O-])c1ccccc1-c1nc2cc(C(F)(F)F)ccc2n1C (centres unmarked) [Present Compound 69, 2-(2-ethylsulfinylphenyl)-1-methyl-5-trifluoromethyl-1H-benzimidazole] | ≥ 90 | ≥ 90 | – |
| CCS(=O)(=O)c1ccccc1-c1nc2cc(C(F)(F)F)ccc2n1C [Present Compound 70, 2-(2-ethylsulfonylphenyl)-1-methyl-5-trifluoromethyl-1H-benzimidazole] | – | ≥ 90 | – |
| CC[S+]([O-])c1ccccc1-c1nc2cc(C(F)(F)F)cnc2o1 (centres unmarked) [Present Compound 82, 2-(2-ethylsulfinylphenyl)-6-trifluoromethyloxazolo[5,4-b]pyridine] | – | ≥ 90 | – |
| CSc1ccccc1-c1nc2cc(C(F)(F)F)ccc2s1 [Present Compound 84, 2-(2-methylsulfanylphenyl)-5-trifluoromethylbenzothiazole] | ≥ 90 | – | – |
| CCSc1ccccc1-c1nc2cc(C(F)(F)C(F)(F)C(F)(F)F)cnc2n1C [Present Compound 128, 2-(2-ethylsulfanyl-phenyl)-6-heptafluoropropyl-3-methyl-3H-imidazo[4,5-b]pyridine] | – | – | ≥ 90 |
| CC[S+]([O-])c1ccccc1-c1nc2nc(C(F)(F)F)ccc2n1C (centres unmarked) [compound 167, 2-(2-ethylsulfinylphenyl)-1-methyl-5-trifluoromethyl-1H-imidazo[4,5-b]pyridine] | – | ≥ 90 | – |
| CCSc1cc(Br)ccc1-c1nc2cc(C(F)(F)F)cnc2n1C [compound 238, 2-(4-bromo-2-ethylsulfanylphenyl)-3-methyl-6-trifluoromethyl-3H-imidazo[4,5-b]pyridine] | ≥ 90 | – | – |
| CCSc1cc(C(F)(F)F)ccc1-c1nc2cc(S(F)(F)(F)(F)F)ccc2n1C [compound 314, 2-(2-ethylsulfanyl-4-trifluoromethyl-phenyl)-1-methyl-5-(pentafluorosulphur)-1H-benzimidazole] | ≥ 90 | – | – |
